Measured values taken from patent publication US11034839B2, “Compounds, linked with haptens, for the detection of senescent cells” (THE UNIVERSITY OF MANCHESTER, priority 2016, dated 2021).
Each block holds one compound with its values, some of them ahead of it.

Legend:
[1] = system: lipofuscin rich senescent cells, induced Saos2-p21WAF1/Cip1 Tet-ON cells; assay: Immunohistochemistry staining in induced Saos2-p21WAF1/Cip1 Tet-ON cellular system; assay type: cell-based, human; details: FIG. 13
Experimental: • 1. Compound (LG13) • 2. 100% ethanol (100% EtOH) • 3. Parafilm • 4. Fritted glass filter of medium porosity • 5. Airtight Dye Container 2.2.2 General Procedure: • 1. Dissolve 40 mg of the compound (LG13) in 7.4 ml 100% EtOH in a glass beaker and cover it with parafilm. • 2. Incubate at 56° C. in a waterbath for 120 min until the compound is completely dissolved. 2.3. General Method for Compound (LG13) Staining 2.3.1 Materials: • 1. Xylene • 2. […] Syringe • 4. 13 mm filter, membrane 0.22 μm • 5. Soft paper (dry or dipped in ethanol) • 6. Anti-biotin antibody ([Hyb-8] ab201341, Abcam) • 7. Ultravision Quanto Detection System HRP DAB kit (Cat no: TL-125-QHD) • 8. Glycerol (Sigma-Aldrich) • 9. Tris Buffered Saline (TBS; 10×): 1.5 M NaCl, 0.1 M Tris-HCl, pH 7.4. Store at 4° C. • 10. 0.5% Triton X/TBS: 0.5 ml Triton X diluted in 99.5 ml TBS • 11. Mounting media Glycergel (DakoCytomation). • 12. Light Microscope • 13. Anti-p21^WAF1/Cip1 mouse primary antibody [(F-5)(sc-6246) Santa-Cruz] • 14. Anti-p16^INK4A mouse primary antibody [(sc-74401) Santa-Cruz] • 15. Anti-Ki67 rabbit polyclonal antibody [ab16667, Abcam] • 16. Secondary goat anti-mouse antibody Alexa Fluor 568 conjugated [Thermo Fisher Scientific (Cat no: A-11004)] • 17. DAPI (4′,6-Diamidino-2-Phenylindole, Dihydrochloride) [Thermo Fisher Scientific (Cat no: D1306)] • 18. Fluorescence microscope 2.3.2 General Procedures: 2.3.2.1 General Staining Protocol for Cells Mounted on Coverslips • 1. Wash ×1 in TBS for 5 min at RT. • 2. Block the endogenous hydrogen peroxidase, using the UltraVision Hydrogen Peroxide Block included in the Ultravision Quanto Detection System HRP DAB kit (Cat no: TL-125-QHD) for 10 min at RT and in dark conditions. • 3. Wash ×2 in TBS for 30 sec and ×1 for 5 min at RT. • 4. Wash ×1 in EtOH 50% for 5 min at RT. • 5. Wash ×1 EtOH 70% for 5 min at RT. • 6. […] The staining reaction is monitored under the light microscope until detection of the signal (average time 5-8 min). • 8. […] The staining reaction is monitored under the light microscope until detection of the dark brown signal (average time 30 sec-1 min) at RT 1. • 20. […]

lipofuscin = details: Georgakopoulou et al., 2013; cited from earlier work
Ethanol solubility = assay type: physicochemical
[2] = system: HeLa cancer cells and near normal Li-Fraumeni fibroblasts; assay: False-positive studies (cell confluency, serum starvation); assay type: cell-based, human; details: compared with SA-b-gal, FIGS. 17 and 18
Source text: The in vitro models comprised seven cellular systems. […] The same cellular system was used at early passages that underwent SIPS upon y-irradiation and was compared in relation to non-irradiated counterparts. Another set of models comprised two inducible Saos2 Tet-ON osteosarcoma cell lines carrying p53 and p21^WAF1/Cip1, respectively, two well established effectors of senescence (Georgakopoulou et al., 2013; Galanos et al., 2016). Finally, the U2OS-E2F1 ER, U205-Cdt1 Tet-ON and HBECs-Cdc6 Tet-ON inducible systems that undergo SIPS due to oncogenic stress signals were also utilized (Petrakis et al., 2016; Liontos et al., 2007; Liontos et al., 2009). Parental cell lines were obtained either directly from ATCC or from collaborating laboratories that generated them. In addition, the human cancer cell line HeLa and near normal Li-Fraumeni fibroblasts (Galanos et al., 2016) were also employed as control cell lines for the specificity of staining of the SBB compounds.

[3] = system: senescent cells (lipofuscin); details: Georgakopoulou et al, 2013; cited from earlier work
[4] = system: senescent cells in irradiated human laryngeal tumors and mouse lung adenomas; assay: Histochemical staining of paraffin embedded, formalin fixed tissue sections (same method as for SBB); details: FFPE sections of irradiated human laryngeal tumors and mouse lung adenomas; dye in 70% ethanol, 10 min
Source text: In the following comparative example 1 the histochemical dye SBB was used to detect senescent cells in tissue sections by the histochemical method previously described [Georgakopoulou et al, Aging (Albany N.Y.) 2013].
Tissue sections were obtained from paraffin embedded, formalin fixed: (a) irradiated human laryngeal tumors and (b) mouse lung adenomas, with established presence of senescent cells. Subsequently, they were immobilized on glass microscopy slides by standard procedures and processed as follows: • a. Deparaffinization for 5 min at room temperature in xylene. • b. Gradual rehydration in solutions of descending concentration of ethanol (100%, 80%, 70%, 50% v/v) and finally in TBS (Tris-buffered saline) or PBS (Phosphate-buffered saline) solution. • c. The SBB dye was diluted in 70% ethanol (v/v), filtered and then applied on tissue sections for 10 min. • d. Quick wash in 50% (v/v) ethanol. • e. Transfer and wash in TBS or PBS solution. • f. Counterstain with Hematoxylin or Nuclear Fast Red, followed by mounting with glycerol and sealed with a cover slip. • g. Microscopy observation. […]

[5] = system: senescent cells in biological systems with established senescence; assay: Quantitative analysis and concordance of SA-b-gal, SBB and GL13 staining; details: FIG. 15

SMILES: CC1(CCOC(=O)CCCC[C@H]2SC[C@H]3NC(=O)N[C@H]32)Nc2cccc3c(/N=N/c4ccc(/N=N/c5ccccc5)c5ccccc45)ccc(c23)N1 (stereo partly drawn) [LG39, 2-(2-Methyl-6-((E)-(4-((E)-phenyldiazenyl)naphthalen-1-yl)diazenyl)-2,3-dihydro-1H-perimidin-2-yl)ethyl 5-((3aR,4R,6aS)-2-oxohexahydro-1H-thieno[3,4-d]imidazol-4-yl)pentanoate]
- detection of lipofuscin rich senescent cells by immunohistochemistry staining [1]: detect robustly lipofuscin rich senescent cells

SMILES: CC1(C)Nc2cccc3c(/N=N/c4ccc(/N=N/c5ccc(CCOC(=O)CCCC[C@H]6SC[C@H]7NC(=O)N[C@H]76)cc5)c5ccccc45)ccc(c23)N1 [LG52, 4-((E)-(4-((E)-(2,2-Dimethyl-2,3-dihydro-1H-perimidin-6-yl)diazenyl)naphthalen-1-yl)diazenyl)phenethyl 5-((3aR,4R,6aS)-2-oxohexahydro-1H-thieno[3,4-d]imidazol-4-yl)pentanoate]
- detection of lipofuscin rich senescent cells by immunohistochemistry staining [1]: detect robustly lipofuscin rich senescent cells

SMILES: CC1(CCCOC(=O)CCCC[C@H]2SC[C@H]3NC(=O)N[C@H]32)Nc2cccc3c(/N=N/c4ccc(/N=N/c5ccccc5)c5ccccc45)ccc(c23)N1 (stereo partly drawn) [LG56, 3-(2-Methyl-6-((E)-(4-((E)-phenyldiazenyl)naphthalen-1-yl)diazenyl)-2,3-dihydro-1H-perimidin-2-yl)propyl 5-((3aR,4R,6aS)-2-oxohexahydro-1H-thieno[3,4-d]imidazol-4-yl)pentanoate]
- detection of lipofuscin rich senescent cells by immunohistochemistry staining [1]: detect robustly lipofuscin rich senescent cells

- ethanol solubility (Ethanol solubility): ethanol solubility problems
SMILES: CC1(C)Nc2cccc3c(/N=N/c4ccc(/N=N/c5ccccc5)c5ccccc45)ccc(c23)N1 [SBB, Sudan Black B]
- effect of staining on lipofuscin autofluorescence (lipofuscin): quenched
- false-positive staining due to serum starvation and cell confluency [2]: deprived of the false-positive staining disadvantages
- selectivity of lipofuscin stain for senescent cells [3]: highly selective for the detection of senescent cells
- histochemical staining of senescent cells [4]: senescent cells are clearly stained
- specificity compared among SA-b-gal, SBB and GL13 staining [5]: concordance of specificity
